Measurements as given in paper PMC7180948, “New Insights into 4-Anilinoquinazolines as Inhibitors of Cardiac Troponin I–Interacting Kinase (TNNi3K)” (Molecules, 2020).

What was measured:
ZAK = target: T1, ZAK (Homo sapiens, UniProt Q9NYL2); assay: KINOMEscan at […], single concentration; type: binding
T1 construct: gene MAP3K20

NEK1 = NEK1 (Homo sapiens, UniProt Q96PY6); assay: biochemical; design: KINOMEscan competition binding panel (Eurofins DiscoverX), single concentration, % inhibition; details: read-out: 7 at 1 µM % inhibition
How it was run: (§1)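 Selectivity profile from a KINOMEscan run against >400 human kinases; test concentration 1 µM.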

ASK1 = target: T2, ASK1 (Homo sapiens, UniProt Q99683); assay: biochemical; design: KINOMEscan competition binding panel (Eurofins DiscoverX), single concentration, % inhibition; details: read-out: 7 at 1 µM % inhibition
T2 construct: gene MAP3K5
How it was run: as §1

MAP4K2 = MAP4K2 (Homo sapiens, UniProt Q12851); assay: biochemical; design: KINOMEscan competition binding panel (Eurofins DiscoverX), single concentration, % inhibition; details: read-out: 7 at 1 µM % inhibition
How it was run: as §1

MAP3K2 = MAP3K2 (Homo sapiens, UniProt Q9Y2U5); assay: biochemical; design: KINOMEscan competition binding panel (Eurofins DiscoverX), single concentration, % inhibition; details: read-out: 7 at 1 µM % inhibition
How it was run: as §1

MKNK2 = MKNK2 (Homo sapiens, UniProt Q9HBH9); assay: biochemical; design: KINOMEscan competition binding panel (Eurofins DiscoverX), single concentration, % inhibition; details: read-out: 7 at 1 µM % inhibition
How it was run: as §1

OSR1 = target: T3, OSR1 (Homo sapiens, UniProt O95747); assay: biochemical; design: KINOMEscan competition binding panel (Eurofins DiscoverX), single concentration, % inhibition; details: read-out: 7 at 1 µM % inhibition
T3 construct: gene OXSR1
How it was run: as §1

RIPK2 = RIPK2 (Homo sapiens, UniProt O43353); assay: biochemical; design: KINOMEscan competition binding panel (Eurofins DiscoverX), single concentration, % inhibition; details: read-out: 7 at 1 µM % inhibition
How it was run: as §1

CDK5 = CDK5 (Homo sapiens, UniProt Q00535); assay: biochemical; design: KINOMEscan competition binding panel (Eurofins DiscoverX), single concentration, % inhibition; details: read-out: 7 at 1 µM % inhibition
How it was run: as §1

EPHA6 = EPHA6 (Homo sapiens, UniProt Q9UF33); assay: biochemical; design: KINOMEscan competition binding panel (Eurofins DiscoverX), single concentration, % inhibition; details: read-out: 7 at 1 µM % inhibition
How it was run: as §1

RET(V804L) = RET(V804L) (Homo sapiens, UniProt P07949, V804L); assay: biochemical; design: KINOMEscan competition binding panel (Eurofins DiscoverX), single concentration, % inhibition; details: read-out: 7 at 1 µM % inhibition
How it was run: as §1

CIT = CIT (Homo sapiens, UniProt O14578); assay: biochemical; design: KINOMEscan competition binding panel (Eurofins DiscoverX), single concentration, % inhibition; details: read-out: 7 at 1 µM % inhibition
How it was run: as §1

EGFR = EGFR (Homo sapiens, UniProt P00533); assay: biochemical; design: KINOMEscan competition binding panel (Eurofins DiscoverX), single concentration, % inhibition; details: read-out: 7 at 1 µM % inhibition
How it was run: as §1

SYK = SYK (Homo sapiens, UniProt P43405); assay: biochemical; design: KINOMEscan competition binding panel (Eurofins DiscoverX), single concentration, % inhibition; details: read-out: 7 at 1 µM % inhibition
How it was run: as §1

DCAMKL2 = target: T4, DCAMKL2 (Homo sapiens, UniProt Q8N568); assay: biochemical; design: KINOMEscan competition binding panel (Eurofins DiscoverX), single concentration, % inhibition; details: read-out: 7 at 1 µM % inhibition
T4 construct: gene DCLK2
How it was run: as §1

WNK3 = WNK3 (Homo sapiens, UniProt Q9BYP7); assay: biochemical; design: KINOMEscan competition binding panel (Eurofins DiscoverX), single concentration, % inhibition; details: read-out: 7 at 1 µM % inhibition
How it was run: as §1

MARK1 = MARK1 (Homo sapiens, UniProt Q9P0L2); assay: biochemical; design: KINOMEscan competition binding panel (Eurofins DiscoverX), single concentration, % inhibition; details: read-out: 7 at 1 µM % inhibition
How it was run: as §1

TAOK1 = TAOK1 (Homo sapiens, UniProt Q7L7X3); assay: biochemical; design: KINOMEscan competition binding panel (Eurofins DiscoverX), single concentration, % inhibition; details: read-out: 7 at 1 µM % inhibition
How it was run: as §1

DYRK1A = DYRK1A (Homo sapiens, UniProt Q13627); assay: biochemical; design: KINOMEscan competition binding panel (Eurofins DiscoverX), single concentration, % inhibition; details: read-out: 7 at 1 µM % inhibition
How it was run: as §1

Chain of RET(V804L) (P07949 whole entry V804L): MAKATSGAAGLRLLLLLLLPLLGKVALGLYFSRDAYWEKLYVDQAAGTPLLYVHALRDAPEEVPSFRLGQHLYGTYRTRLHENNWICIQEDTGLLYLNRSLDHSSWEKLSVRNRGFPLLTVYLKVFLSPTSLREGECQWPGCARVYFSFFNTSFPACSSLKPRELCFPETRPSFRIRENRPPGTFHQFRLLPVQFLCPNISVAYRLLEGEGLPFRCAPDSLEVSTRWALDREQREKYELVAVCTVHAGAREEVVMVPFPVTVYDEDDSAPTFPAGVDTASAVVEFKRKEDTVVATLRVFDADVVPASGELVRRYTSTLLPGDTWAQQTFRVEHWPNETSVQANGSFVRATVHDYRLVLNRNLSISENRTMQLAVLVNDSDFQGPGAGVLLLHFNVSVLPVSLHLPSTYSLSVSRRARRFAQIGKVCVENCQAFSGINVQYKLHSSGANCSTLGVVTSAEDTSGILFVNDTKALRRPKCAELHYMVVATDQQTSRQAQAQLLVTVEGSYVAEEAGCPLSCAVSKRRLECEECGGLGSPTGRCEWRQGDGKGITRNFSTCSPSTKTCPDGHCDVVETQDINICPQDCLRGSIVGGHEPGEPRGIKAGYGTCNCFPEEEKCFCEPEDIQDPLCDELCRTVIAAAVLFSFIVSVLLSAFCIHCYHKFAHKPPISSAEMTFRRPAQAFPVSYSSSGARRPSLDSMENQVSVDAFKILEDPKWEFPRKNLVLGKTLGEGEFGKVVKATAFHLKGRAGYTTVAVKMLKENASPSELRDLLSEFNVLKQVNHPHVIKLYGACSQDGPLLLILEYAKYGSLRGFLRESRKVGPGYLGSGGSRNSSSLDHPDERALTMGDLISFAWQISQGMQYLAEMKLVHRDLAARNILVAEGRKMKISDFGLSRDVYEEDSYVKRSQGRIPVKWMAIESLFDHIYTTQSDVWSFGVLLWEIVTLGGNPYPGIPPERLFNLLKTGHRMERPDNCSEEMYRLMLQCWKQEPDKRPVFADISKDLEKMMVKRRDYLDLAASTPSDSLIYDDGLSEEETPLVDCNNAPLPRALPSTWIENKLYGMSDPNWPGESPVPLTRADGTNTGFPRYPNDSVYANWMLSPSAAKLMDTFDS
T3 sequence (O95747 whole entry): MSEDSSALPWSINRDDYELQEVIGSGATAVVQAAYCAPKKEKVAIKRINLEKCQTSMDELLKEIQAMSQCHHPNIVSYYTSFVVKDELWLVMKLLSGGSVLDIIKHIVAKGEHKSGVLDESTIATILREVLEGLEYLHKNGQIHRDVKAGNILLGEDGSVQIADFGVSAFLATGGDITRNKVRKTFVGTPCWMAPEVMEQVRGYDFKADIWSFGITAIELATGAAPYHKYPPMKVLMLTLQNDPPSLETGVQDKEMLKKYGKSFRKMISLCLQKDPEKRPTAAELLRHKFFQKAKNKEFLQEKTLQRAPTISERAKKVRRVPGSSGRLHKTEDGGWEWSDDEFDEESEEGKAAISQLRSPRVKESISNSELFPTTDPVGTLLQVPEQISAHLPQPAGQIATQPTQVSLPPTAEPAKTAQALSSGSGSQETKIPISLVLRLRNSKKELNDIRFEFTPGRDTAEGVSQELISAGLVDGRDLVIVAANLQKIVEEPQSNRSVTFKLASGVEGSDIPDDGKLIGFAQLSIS
Chain of EPHA6 (Q9UF33 whole entry): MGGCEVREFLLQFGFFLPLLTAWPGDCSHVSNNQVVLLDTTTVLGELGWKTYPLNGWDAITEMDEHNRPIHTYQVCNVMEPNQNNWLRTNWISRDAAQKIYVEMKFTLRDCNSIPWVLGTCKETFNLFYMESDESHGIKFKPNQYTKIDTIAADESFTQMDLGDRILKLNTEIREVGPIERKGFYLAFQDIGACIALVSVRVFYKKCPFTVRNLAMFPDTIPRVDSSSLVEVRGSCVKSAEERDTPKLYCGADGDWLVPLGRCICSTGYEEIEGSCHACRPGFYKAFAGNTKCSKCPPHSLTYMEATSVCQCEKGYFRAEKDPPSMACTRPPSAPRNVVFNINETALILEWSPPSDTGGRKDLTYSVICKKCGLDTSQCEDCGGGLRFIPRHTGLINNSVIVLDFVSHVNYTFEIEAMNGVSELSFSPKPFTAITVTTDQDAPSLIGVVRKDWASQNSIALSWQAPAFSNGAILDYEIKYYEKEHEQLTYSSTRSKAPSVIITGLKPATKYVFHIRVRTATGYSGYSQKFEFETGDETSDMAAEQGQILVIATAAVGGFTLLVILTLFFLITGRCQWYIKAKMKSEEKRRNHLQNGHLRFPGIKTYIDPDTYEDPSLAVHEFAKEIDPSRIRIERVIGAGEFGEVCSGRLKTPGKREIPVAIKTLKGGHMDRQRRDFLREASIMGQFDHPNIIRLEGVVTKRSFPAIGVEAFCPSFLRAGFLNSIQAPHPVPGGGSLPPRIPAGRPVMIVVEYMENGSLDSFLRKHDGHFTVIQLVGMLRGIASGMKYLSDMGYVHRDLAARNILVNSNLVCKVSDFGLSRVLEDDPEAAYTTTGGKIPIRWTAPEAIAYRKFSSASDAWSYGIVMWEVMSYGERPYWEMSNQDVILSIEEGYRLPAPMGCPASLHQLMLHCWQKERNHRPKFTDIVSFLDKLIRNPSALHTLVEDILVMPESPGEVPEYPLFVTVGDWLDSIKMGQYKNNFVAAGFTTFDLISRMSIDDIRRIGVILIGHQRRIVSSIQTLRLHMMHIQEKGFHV
Chain of CIT (O14578 whole entry): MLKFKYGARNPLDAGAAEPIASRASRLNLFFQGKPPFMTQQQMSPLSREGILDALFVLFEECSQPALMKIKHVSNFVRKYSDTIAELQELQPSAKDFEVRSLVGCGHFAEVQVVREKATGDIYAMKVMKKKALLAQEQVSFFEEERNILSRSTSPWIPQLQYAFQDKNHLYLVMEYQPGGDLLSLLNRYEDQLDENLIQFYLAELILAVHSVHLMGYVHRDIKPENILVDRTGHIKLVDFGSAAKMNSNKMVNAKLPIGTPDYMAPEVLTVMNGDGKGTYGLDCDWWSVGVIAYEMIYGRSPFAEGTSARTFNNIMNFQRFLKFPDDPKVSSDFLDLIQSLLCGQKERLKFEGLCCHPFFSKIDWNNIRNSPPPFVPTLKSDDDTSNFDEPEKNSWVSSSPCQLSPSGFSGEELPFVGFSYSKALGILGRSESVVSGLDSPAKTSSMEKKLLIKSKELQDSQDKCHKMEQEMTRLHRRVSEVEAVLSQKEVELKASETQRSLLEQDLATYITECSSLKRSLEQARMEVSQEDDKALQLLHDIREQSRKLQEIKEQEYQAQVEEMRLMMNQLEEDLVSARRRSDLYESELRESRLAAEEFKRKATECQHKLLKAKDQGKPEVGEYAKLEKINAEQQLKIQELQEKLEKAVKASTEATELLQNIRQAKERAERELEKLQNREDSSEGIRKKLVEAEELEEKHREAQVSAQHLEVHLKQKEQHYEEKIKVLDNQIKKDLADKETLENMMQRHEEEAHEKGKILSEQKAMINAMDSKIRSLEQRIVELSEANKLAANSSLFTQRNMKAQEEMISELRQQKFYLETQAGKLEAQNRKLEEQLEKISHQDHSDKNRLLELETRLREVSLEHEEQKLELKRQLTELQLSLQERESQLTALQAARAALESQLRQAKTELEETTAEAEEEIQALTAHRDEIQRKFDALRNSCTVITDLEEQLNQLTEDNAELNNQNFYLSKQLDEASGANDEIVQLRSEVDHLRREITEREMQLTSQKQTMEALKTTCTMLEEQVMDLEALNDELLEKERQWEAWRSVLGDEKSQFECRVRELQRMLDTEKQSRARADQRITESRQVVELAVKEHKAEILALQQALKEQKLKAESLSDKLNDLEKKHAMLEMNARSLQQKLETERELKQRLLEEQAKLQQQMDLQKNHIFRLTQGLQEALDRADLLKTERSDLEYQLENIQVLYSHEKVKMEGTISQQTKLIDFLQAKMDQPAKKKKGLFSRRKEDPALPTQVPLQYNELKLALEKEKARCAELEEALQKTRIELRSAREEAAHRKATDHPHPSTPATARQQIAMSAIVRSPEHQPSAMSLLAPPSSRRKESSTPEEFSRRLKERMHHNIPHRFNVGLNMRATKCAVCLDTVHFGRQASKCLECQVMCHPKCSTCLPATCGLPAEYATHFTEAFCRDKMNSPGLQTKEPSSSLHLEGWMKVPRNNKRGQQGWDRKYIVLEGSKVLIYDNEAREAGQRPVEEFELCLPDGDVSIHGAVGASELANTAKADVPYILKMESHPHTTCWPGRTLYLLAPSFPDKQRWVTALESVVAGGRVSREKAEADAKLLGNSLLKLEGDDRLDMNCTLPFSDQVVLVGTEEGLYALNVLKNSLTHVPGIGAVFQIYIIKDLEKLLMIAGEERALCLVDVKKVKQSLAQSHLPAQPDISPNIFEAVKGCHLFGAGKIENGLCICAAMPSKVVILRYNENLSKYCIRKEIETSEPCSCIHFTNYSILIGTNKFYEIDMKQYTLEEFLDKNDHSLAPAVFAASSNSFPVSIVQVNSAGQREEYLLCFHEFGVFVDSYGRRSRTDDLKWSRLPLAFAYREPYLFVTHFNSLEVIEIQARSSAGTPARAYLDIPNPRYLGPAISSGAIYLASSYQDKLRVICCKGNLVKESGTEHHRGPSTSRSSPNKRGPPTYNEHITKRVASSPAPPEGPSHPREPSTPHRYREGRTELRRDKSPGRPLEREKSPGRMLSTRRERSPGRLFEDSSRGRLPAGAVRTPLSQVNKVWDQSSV
Chain of CDK5 (Q00535 whole entry): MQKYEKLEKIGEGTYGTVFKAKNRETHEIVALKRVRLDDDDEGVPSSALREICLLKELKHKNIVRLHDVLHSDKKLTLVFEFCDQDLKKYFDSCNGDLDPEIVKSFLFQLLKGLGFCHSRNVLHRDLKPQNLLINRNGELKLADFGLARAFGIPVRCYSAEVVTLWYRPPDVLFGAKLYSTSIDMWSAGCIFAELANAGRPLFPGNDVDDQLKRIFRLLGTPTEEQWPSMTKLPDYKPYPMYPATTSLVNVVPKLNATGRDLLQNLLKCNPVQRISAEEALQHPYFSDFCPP

Work on `CNS(=O)(=O)c1ccc(N(C)C)c(Nc2ncnc3cc(OC)c(OC)cc23)c1` [compound 7, 3-((6,7-dimethoxyquinazolin-4-yl)amino)-4-(dimethylamino)-N-methylbenzenesulfonamide] yielded an inhibition at 1 µM (ZAK) of 93%, an inhibition at 1 µM (NEK1) of 0% and an inhibition at 1 µM (ASK1) of 0%. It also gave an inhibition at 1 µM (MAP4K2) of 41%, an inhibition at 1 µM (MAP3K2) of 12% and an inhibition at 1 µM (MKNK2) of 13%. For the same compound, the inhibition at 1 µM (OSR1) was 22%, the inhibition at 1 µM (RIPK2) was 28% and the inhibition at 1 µM (CDK5) was 0%. For the same compound, the inhibition at 1 µM (EPHA6) was 0%, the inhibition at 1 µM (RET(V804L)) was 0% and the inhibition at 1 µM (CIT) was 0%. For the same compound, the inhibition at 1 µM (EGFR) was 0%, the inhibition at 1 µM (SYK) was 0% and the inhibition at 1 µM (DCAMKL2) was 0%. For the same compound, the inhibition at 1 µM (WNK3) was 2%, the inhibition at 1 µM (MARK1) was 7% and the inhibition at 1 µM (TAOK1) was 25%. It also gave an inhibition at 1 µM (DYRK1A) of 0%.
